Test results taken from paper PMC11684029, “Discovery of VU6024578/BI02982816: An mGlu1 Positive Allosteric Modulator with Efficacy in Preclinical Antipsychotic and Cognition Models” (Journal of Medicinal Chemistry, 2024).
Where two headings read alike, the source gives them in different places.

Assays:
rat mGlu2–5,7,8 = experiment: mGlu subtype selectivity; type: cell-based; settings: inactive
Experimental: (§1) Over the course of the mGlu1 PAM program, 19d became an assay standard and was assayed multiple times, affording refined potency values.[20]

human mGlu2–5,7,8 = experiment: mGlu subtype selectivity; type: cell-based
Experimental: as §1

[1] = brain exposure in rat AHL Cmax versus Ctrough study; type: in vivo
Experimental: Based on these positive behavioral data and the clear PK/PD relationship tied to achieving free brain levels at, or above, the mGlu1 PAM EC50, we next wanted to define the role of Cmax versus Ctrough drug (19d) concentrations in driving the PK/PD relationship. To accomplish this, pretreatment times and doses were calculated based upon previous PK (see Supporting Information Figure S3)[20] data to target free brain concentrations at and below the in vitro EC50 at the time of amphetamine challenge. Rats were pretreated with 3 mg/kg 19d or vehicle after habituation to the locomotor chambers are described in Figure 9A. Rats pretreated with 19d (10–60 mg/kg) or vehicle were administered compound prior to starting the amphetamine-induced hyperlocomotion experiment as depicted in Figure 9B-D. Ambulations were evaluated for 90 min post amphetamine treatment for all dosing groups. Pretreatment of 19d, chamber habituation, amphetamine treatment and ambulation recording times are outlined for each dosing group in Figure 9. Blood and brain samples were obtained at the end of testing (EOT) to determine 19d levels at the end of the study (Table 6).
The terminal free brain concentrations for this dosing group were 40 nM. […]

[2] = plasma protein binding, equilibrium dialysis; type: in vitro ADME, rat; settings: fraction unbound
Experimental: The protein binding of each compound was determined in plasma via equilibrium dialysis employing RED Plates (ThermoFisher Scientific, Rochester, NY). Plasma was added to the 96 well plate containing test compound and mixed thoroughly for a final concentration of 5 μM. Subsequently, an aliquot of the plasma-compound mixture was transferred to the cis chamber (red) of the RED plate, with an phosphate buffer (25 mM, pH 7.4) in the trans chamber. The RED plate was sealed and incubated for 4 h at 37 °C with shaking. At completion, aliquots from each chamber were diluted 1:1 with either plasma (cis) or buffer (trans) and transferred to a new 96 well plate, at which time ice-cold acetonitrile containing internal standard (50 ng/mL carbamazepine) (2 volumes) was added to extract the matrices. The plate was centrifuged (3000 rcf, 10 min) and supernatants transferred and diluted 1:1 (supernatant: water) into a new 96 well plate, which was then sealed in preparation for LC/MS/MS analysis. Each compound was assayed in triplicate within the same 96-well plate. Fraction unbound was determined using the following equation [drawing 1]

[3] = rat IV/PO PK crossover study; type: in vivo
From the text: Thus, 19d was a stable chemical entity in vivo. […] Overall, the rat PK and CNS penetration was supportive of in vivo work and progression down the development flow-chart.

4-strain ± S9 = experiment: Ames test
3A4 = 3A4 (Homo sapiens, UniProt P08684); experiment: 3A4 mechanism-based inhibition; type: in vitro ADME
IV dog PK = type: in vivo; settings: 0.5 mg/kg IV; for C0: plasma
Experimental: Deeper profiling began with IV dog PK (0.5 mg/kg, n = 3 male beagles). […] Was this a mechanism-based toxicity in dog? Could there be dog-specific pharmacology of mGlu1 activation? Were these AEs derived from the 19d chemotype? Could a mGlu1/mGlu5 heterodimer be responsible for the observed AEs? […] In an attempt to address the chemotype question, we evaluated PAM 4 (VU6004909),[8] an early generation rodent in vivo tool compound, for the first time in dog PK. […] of the study with 19d, PAM 4 produced no AEs in dog. […] Therefore, more molecular pharmacology and PK studies as well as additional chemically distinct mGlu1 PAM chemotypes are required to understand the AEs elicited by an mGlu1 PAM in dogs, an otherwise very promising target for the treatment of schizophrenia.

Sprague–Dawley rats = experiment: spontaneous locomotion; type: in vivo; settings: rat, doses up to 10 mg/kg p.o.
Experimental: In order to enable our target validation work, we first profiled PAM 19d in a rat locomotor battery to ensure that pharmacodynamic efficacy was not mistaken for gross effects on locomotion.[20] […] PK was performed in parallel to establish a PK/PD relationship.[24]
Adult male Sprague–Dawley rats were administered VU6024578 (1–10 mg/kg p.o.) or vehicle and were tested in the […]. Seventy minutes later the animals were placed into the activity chambers (Med Associates) for 30 min.

sigma (non-selective) = experiment: Eurofins radioligand binding panel; set-up: species or system human; settings: agonist radioligand
From the text: (§2) Table S1. Eurofins Lead Profiling Screen Data
(§3) This is a radioligand binding panel of 80 targets including GPCRs, ion channels, transporters and nuclear hormones. Biochemical assay results are presented as the percent inhibition of specific […]
(§4) Results showing an inhibition or stimulation higher than 50% are considered to represent significant effect and are highlighted

TNF-alpha = experiment: Eurofins radioligand binding panel; set-up: species or system human; settings: agonist radioligand
From the text: as §2, §3, §4

Chain of 3A4 (P08684 whole entry): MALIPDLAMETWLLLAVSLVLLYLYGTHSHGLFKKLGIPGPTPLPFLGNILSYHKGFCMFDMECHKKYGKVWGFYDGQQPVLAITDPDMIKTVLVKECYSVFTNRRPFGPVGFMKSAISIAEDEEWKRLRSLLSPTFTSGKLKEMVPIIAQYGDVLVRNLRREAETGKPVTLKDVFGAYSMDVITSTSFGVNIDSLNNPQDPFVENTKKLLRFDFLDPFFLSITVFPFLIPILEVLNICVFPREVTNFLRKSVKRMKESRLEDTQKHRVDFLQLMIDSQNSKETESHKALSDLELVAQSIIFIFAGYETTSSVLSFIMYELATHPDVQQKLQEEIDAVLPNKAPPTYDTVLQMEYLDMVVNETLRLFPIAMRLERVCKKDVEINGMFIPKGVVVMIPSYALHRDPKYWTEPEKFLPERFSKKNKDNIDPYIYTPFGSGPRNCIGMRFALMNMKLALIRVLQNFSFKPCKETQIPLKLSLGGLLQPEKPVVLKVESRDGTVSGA

In the case of Cn1nc(-c2ccnn2C)cc1CNC(=O)c1cc(-c2ccco2)ccc1Cl [Compound 19d, 2-Chloro-N-((1,2′-dimethyl-1H,2’H-[3,3′-bipyrazol]-5-yl)methyl)-5-(furan-2-yl)benzamide], the “activity against rat mGlu2–5,7,8” value (rat mGlu2–5,7,8) is reported as over 30 µM, the “activity against human mGlu2–5,7,8” value (human mGlu2–5,7,8; inactive) is reported as over 30 µM and the “activity on mGlu2–5,7,8, in words” value (human mGlu2–5,7,8; species not given) is reported as “inactive”. The “Cmax over rat in vitro potency” value ([1]; 60 mg/kg, at Tmax) was 6.8 fold, the concentration at 2.5 h ([1]; Sprague-Dawley, brain, oral, 3 mg/kg, pretreatment time 2.5 hr, read-out: Brain Unbound @EOT) was 40 nM and the concentration at 6.5 h ([1]; Sprague-Dawley, brain, oral, 10 mg/kg, pretreatment time 6.5 hr, read-out: Brain Unbound @EOT) was 44 nM. The concentration at 15 h ([1]; Sprague-Dawley, brain, oral, 60 mg/kg, pretreatment time 15 hr, read-out: Brain Unbound @EOT) was 3 nM, the concentration at 30 h ([1]; Sprague-Dawley, brain, oral, 60 mg/kg, pretreatment time 30 hr, read-out: Brain Unbound @EOT) was 6 nM and the rat fuplasma [2] was 0.041. The Vss ([3]; 1 mg/kg IV) was 1.78 L/kg, the “plasma clearance (CLp)” value ([3]; 1 mg/kg IV) was 8.3 mL/min/kg and the t1/2 ([3]; 1 mg/kg IV) was 3.9 h. The “oral bioavailability (%F)” value ([3]; PO 10% tween 80) was 100%, the Cmax ([3]; PO arm) was 4150 ng/mL and the Tmax ([3]; PO arm) was 2 h. The AUC ([3]; plasma, PO arm) was 24600 ng·h/mL, the Ames test result (4-strain ± S9) was “negative” and the 3A4 mechanism-based inhibition (3A4) was “no 3A4 mechanism-based inhibition”. It also gave a CLp (IV dog PK) of 5.4 mL/min/kg, a Vss (IV dog PK) of 0.92 L/kg and a t1/2 (IV dog PK) of 3.6 h. The C0 (IV dog PK; read-out: C0 exposure, total) was 2050 nM, the C0 (IV dog PK; male, beagle, iv, 0.5 mg/kg, read-out: C0 exposure, unbound) was 80 nM and the spontaneous locomotion (Sprague–Dawley rats) was “lack of effect”. For the same compound, the “% Inhibition at 10 µM” value (sigma (non-selective)) was -11% and the “% Inhibition at 10 µM” value (TNF-alpha) was 2%.
